19 molecules from patent US20250243186A1, “PIPERIDINYL INDOLE DERIVATIVES, PREPARATION METHODS AND MEDICINAL USES THEREOF” (HANSOH BIO LLC, priority 2021, published 2025) can be followed below.

Like-named read-outs stand apart in the source and are kept apart here. Some results are limits rather than exact numbers.

Data set [1] has as its target T1, Recombinant human Factor B catalytic domain (Homo sapiens (Human), UniProt P00751). The experiment in a line: biochemical.
Data set [2] addresses T1, Recombinant human Factor B catalytic domain. The experiment in a line: Target residence time of Factor B inhibitors by surface plasmon resonance (SPR). As to conditions: for Residence time: 1/koff; for t1/2: binding half-life ln2/koff.
Data set [3] has the same target. Kind of data set: Factor B binding assay by TR-FRET. The note with it: 10 nM his-tagged Factor B catalytic domain, 100 nM tracer, 1 h.
Data set [4] in a line: Ocular pharmacokinetic studies in rats. The note with it: 2 mpk PO. The format is in vivo, brown Norway rats. As to the method:
Three-month-old brown Norway rats were administered the Example compound via oral gavage as a suspension in 2 equiv 1 N HCl+30% PEG300+50% (20% Cremophor EL in water). Ocular tissues from both eyes and plasma were collected from rats per time point at 0.25, 0.5, 1, 6, and 24 h after administration. The ocular tissues collected were the retina and the posterior eye cup (RPE/choroid and posterior sclera). The tissues were diluted with phosphate buffered saline containing 10% acetonitrile and homogenized, centrifuged prior to analyses. The concentrations of the test article were measured in plasma and supernatants of ocular homogenates by HPLC-MS/MS in four individual retinas, four individual posterior eye cups, and two individual plasma samples at each time point. Chromatographic separation was carried out on Waters BEH C18 Column (2.1×50 mm, 1.7 μm) column (MAC-MOD Analytical, Chadds Ford, PA), using a gradient elution method with water and acetonitrile, both containing 0.025% formic acid—1 mM NH4OAc. Mass spectrometric measurements in positive electrospray ionization were directed at quantifying the mass transition with [M+H]^+ as the precursor ion on API6500, triple quadruple mass spectrometer (Sciex, Framingham, MA). The relevant pharmacokinetic parameters were estimated using noncompartmental methods using WinNonlin (Enterprise, version 8.2).

Data set [5] relates to alternative complement pathway (AP). The experiment in a line: Ex vivo assessment of plasma PD inhibition (AP MAC deposition ELISA in rat serum). The arrangement: species or system Sprague Dawley rats. As to conditions: 2 mg/kg oral.
For another data set, the system named is AP complement activation. The experiment in a line: In vivo assessment of mouse AP complement functional activity (LPS-induced plasma C3b/iC3b/C3c ELISA). The arrangement: species or system C57BL/6 mice. The note with it: at 20 h, 20 mg/kg oral. The procedure: Female C57BL/6 mice were administered with Example 57 formulation (20 mg/kg in 0.5% (w/v) methyl cellulose, 0.5% (v/v) Tween 80) by oral gavage 20 h before the end of study. To activate complement pathway, lipopolysaccharide (LPS) from Salmonella typhimurium (Sigma) was injected i.p. (2.5 mg/kg) 7.5 h prior to the end of the study. Control mice were given i.p. injection of saline solution and dosed with vehicle by oral gavage. Plasma samples were collected from mice at the end of the study. AP complement activation was assessed by measuring plasma C3 cleavage products C3b/iC3b/C3c with ELISA using rat anti-mouse C3b/iC3b/C3c monoclonal antibody (clone 2/11, Hycult biotech, 0.1ug/well) and goat anti-Rat IgG (whole molecule)-Peroxidase (Sigma) diluted in TBST (TBS/0.05% Tween20).

Setting [6] is: read-out: Factor B TR-FRET IC50.

T1 sequence (P00751 470-764): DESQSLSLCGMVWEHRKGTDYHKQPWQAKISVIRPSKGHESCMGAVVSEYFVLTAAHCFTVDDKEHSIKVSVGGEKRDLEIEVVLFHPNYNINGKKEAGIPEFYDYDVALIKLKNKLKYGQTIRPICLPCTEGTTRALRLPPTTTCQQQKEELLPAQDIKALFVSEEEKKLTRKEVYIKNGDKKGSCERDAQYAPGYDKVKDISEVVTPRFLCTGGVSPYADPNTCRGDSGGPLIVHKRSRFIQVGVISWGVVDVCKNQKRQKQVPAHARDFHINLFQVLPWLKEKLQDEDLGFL

As to `COc1cc(C)c2[nH]ccc2c1CN1CCC2(CC1c1ccc(C(=O)O)cc1)CC2F` (single isomer, unassigned) [27 (Isomer 1), 4-(1-fluoro-6-((5-methoxy-7-methyl-1H-indol-4-yl)methyl)-6-azaspiro[2.5]octan-5-yl)benzoic acid], in data set [1], the Kd is 6.25 nM. Moreover, in data set [2], the “Residence time” value worked out at 191.4 s and the “t1/2” value is 0.0367 h. Further, the IC50 in data set [3] (Factor B TR-FRET IC50 (nM)) was 5 nM.

For the molecule `COc1cc(C)c2[nH]ccc2c1CN1CCC2(CC1c1ccc(C(=O)O)cc1)CC2(F)F` (single isomer, unassigned) [8 (Isomer 1), 4-(1,1-difluoro-6-((5-methoxy-7-methyl-1H-indol-4-yl)methyl)-6-azaspiro[2.5]octan-5-yl)benzoic acid], the AUC(0-t) in data set [4] (Brown Norway, rat, 2 mg/kg, plasma, read-out: Plasma AUC0-last) is 10.8 µM·h; in data set [4] (Brown Norway, rat, 2 mg/kg, retina, read-out: Retina AUC0-last), 2.23 µM·h. Moreover, the half-life in data set [4] (Brown Norway, rat, in vivo, 2 mg/kg, read-out: T½ (converted)) is 6.4 h. Also, the IC50 in data set [3] (Factor B TR-FRET IC50 (nM)) was 7 nM.

With `COc1cc(C)c2[nH]ccc2c1CN1CCC2(CC1c1ccc(C(=O)O)cc1)CC2F` (single isomer, unassigned) [27 (Isomer 2), 4-(1-fluoro-6-((5-methoxy-7-methyl-1H-indol-4-yl)methyl)-6-azaspiro[2.5]octan-5-yl)benzoic acid], the Kd in data set [1] worked out at 4.25 nM. Moreover, in data set [2], the “Residence time” value is listed as 308.9 s and the “t1/2” value turned out to be 0.0592 h. In addition, the IC50 in data set [3] (Factor B TR-FRET IC50 (nM)) stood at 5.3 nM.

Turning to `COc1cc(C)c2[nH]ccc2c1CN1CCC2(C[C@H]1c1ccc(-c3noc(=O)[nH]3)cc1)CC(F)(F)C2` (single isomer, unassigned) [47 (Isomer 1)], in data set [1], the Kd was 0.53 nM. Moreover, in data set [2], the “Residence time” value is on record as 4130 s and the “t1/2” value amounted to 0.795 h. Also, the IC50 in data set [3] (Factor B TR-FRET IC50 (nM)) was below 2 nM.

With `COc1cc(C)c2[nH]ccc2c1CN1CCC2(C[C@H]1c1ccc(C(=O)O)cc1C)CC(F)(F)C2` [Example 57], the “inhibition in rat ex-vivo PD assay” value in data set [5] (at 24 h) is “sustained inhibition”. For the same molecule, in data set [4], the “T½” value was determined as 22.2 h. Further, the “Plasma AUC0-last (nM · h)” value in data set [4] (plasma) was 12,668 nM · h. Also, the “Retina AUC0-last” value in data set [4] (retina) came to 0.7964 µM·h. Also, in the data set with AP complement activation, the “inhibition in mouse in-vivo PD assay” value is recorded as “sustained inhibition”. Also, the “t1/2” value in data set [2] amounted to 1.188 h. Further, the IC50 in data set [3] (setting [6]) was below 2 nM.

With `COc1cc(C)c2[nH]ccc2c1CN1CC2CC3(CC3)CC2C1c1ccc(C(=O)O)cc1` (single isomer, unassigned) [29 (Isomer 1), 4-(2-((5-methoxy-7-methyl-1H-indol-4-yl)methyl)hexahydro-1H-spiro[cyclopenta[c]pyrrole-5,1′-cyclopropan]-1-yl)benzoic acid], the Kd in data set [1] is 7.03 nM. For the same molecule, in data set [2], the “Residence time” value is 236.4 s and the “t1/2” value turned out to be 0.0453 h. Besides, in data set [3] (Factor B TR-FRET IC50 (nM)), the IC50 was found to be 7.5 nM.

On to `CCO[C@H]1CCN(Cc2c(OC)cc(C)c3[nH]ccc23)[C@H](c2ccc(C(=O)O)cc2)C1` [Iptacopan, reference compound], for which the inhibition at 2 mg/kg in data set [5] (Rattus norvegicus, rats, 24 h post dose, 50% serum, read-out: Serum PD inhibition (%) at 24 h (2 mpk)) is -3%.

Take `COc1cc(C)c2[nH]ccc2c1CN1CC2CCCC2C1c1ccc(C(=O)O)cc1` (single isomer, unassigned) [13 (Isomer 1), 4-(2-((5-methoxy-7-methyl-1H-indol-4-yl)methyl)octahydrocyclopenta[c]pyrrol-1-yl)benzoic acid]: the IC50 in data set [3] (Factor B TR-FRET IC50 (nM)) turned out to be 17.4 nM.

Consider `COc1cc(C)c2[nH]ccc2c1CN1CCC2(CC1c1ccc(C(=O)O)cc1)CC(C)(F)C2` (single isomer, unassigned) [42 (Isomer 1), 4-(2-fluoro-7-((5-methoxy-7-methyl-1H-indol-4-yl)methyl)-2-methyl-7-azaspiro[3.5]nonan-6-yl)benzoic acid], for which the IC50 in data set [3] (Factor B TR-FRET IC50 (nM)) worked out at 4 nM.

On to `Cc1cc(C)c2[nH]ccc2c1CN1CCC(CF)CC1c1ccc(C(=O)O)cc1` (single isomer, unassigned) [7 (Isomer 1), 4-(1-((5,7-dimethyl-1H-indol-4-yl)methyl)-4-(fluoromethyl)piperidin-2-yl)benzoic acid], for which the IC50 in data set [3] (Factor B TR-FRET IC50 (nM)) turned out to be 313 nM.

Take `COc1cc(C)c2[nH]ccc2c1CN1C[C@@H]2CC(C)(C)C[C@@H]2C1c1ccc(C(=O)O)cc1` (single isomer, unassigned) [34 (Isomer 1)]: the IC50 in data set [3] (Factor B TR-FRET IC50 (nM)) is 7.7 nM.

Turning to `Cc1cc(C)c2[nH]ccc2c1CN1CCC2(CCCO2)CC1c1ccc(C(=O)O)cc1` (single isomer, unassigned) [2 (Isomer 3), 4-(8-((5,7-dimethyl-1H-indol-4-yl)methyl)-1-oxa-8-azaspiro[4.5]decan-7-yl)benzoic acid], in data set [3] (Factor B TR-FRET IC50 (nM)), the IC50 stood at 507 nM.

`C=C(F)c1cc(C)c2[nH]ccc2c1CN1CCC2(C[C@H]1c1ccc(C(=O)O)cc1)CC(F)(F)C2` [Example 81]: the IC50 in data set [3] (setting [6]) stood at 47.3 nM.

On to `COc1cc(C)c2[nH]ccc2c1CN1CC2CC(C(F)F)CC2C1c1ccc(C(=O)O)cc1` (single isomer, unassigned) [39 (Isomer 3), 4-(5-(difluoromethyl)-2-((5-methoxy-7-methyl-1H-indol-4-yl)methyl)octahydrocyclopenta[c]pyrrol-1-yl)benzoic acid], for which the IC50 in data set [3] (Factor B TR-FRET IC50 (nM)) turned out to be 7.3 nM.

Consider `COc1cc(C)c2[nH]ccc2c1CN1CC2CC3(CC3)CC2C1c1ccc(C(=O)O)cc1` (single isomer, unassigned) [29 (Isomer 2), 4-(2-((5-methoxy-7-methyl-1H-indol-4-yl)methyl)hexahydro-1H-spiro[cyclopenta[c]pyrrole-5,1′-cyclopropan]-1-yl)benzoic acid], for which the IC50 in data set [3] (Factor B TR-FRET IC50 (nM)) came out at 43.7 nM.

For the molecule `Cc1cc(C)c2[nH]ccc2c1CN1CCC(C(F)F)CC1c1ccc(C(=O)O)cc1` (single isomer, unassigned) [6 (Isomer 2), 4-(4-(difluoromethyl)-1-((5,7-dimethyl-1H-indol-4-yl)methyl)piperidin-2-yl)benzoic acid], the IC50 in data set [3] (Factor B TR-FRET IC50 (nM)) came to 142 nM.

As to `CCc1cc(C)c2[nH]ccc2c1CN1CCC2(C[C@H]1c1ccc(C(=O)O)cc1)CC(F)(F)C2` [Example 80], in data set [3] (setting [6]), the IC50 is below 2 nM.

On to `Cc1cc(C2CC2)c(CN2CCC3(C[C@H]2c2ccc(C(=O)O)cc2)CC(F)(F)C3)c2cc[nH]c12` [Example 53], for which the “t1/2” value in data set [2] came to 1.214 h. Also, the IC50 in data set [3] (setting [6]) was below 2 nM.

In the case of `COc1cc(C)c2[nH]ccc2c1CN1CCC2(CCO2)CC1c1ccc(C(=O)O)cc1` (single isomer, unassigned) [38 (Isomer 4), 4-(7-((5-methoxy-7-methyl-1H-indol-4-yl)methyl)-1-oxa-7-azaspiro[3.5]nonan-6-yl)benzoic acid], in data set [3] (Factor B TR-FRET IC50 (nM)), the IC50 came to 4.8 nM.
